Columns and labels:
BaF3/BCR-ABL T315I = experiment: Toxicity to transduced BaF3 model tumor cell line; type: cell-based, murine; conditions: Mus musculus
in vivo = experiment: in vivo; design: species or system C57BL/6 line mice; conditions: mouse, plasma; mesylate polymorphous modification I 59 mg/kg (50 mg/kg as free base), single oral, C57BL/6 mice; read-out: Cmax
Method: FIGS. 52A-52B. […] The mean values were determined for each time point on the basis of the individual data obtained from three animals.
The results of the study are given in FIG. 52 and in Tables 14 and 15.

SupB15 = experiment: Cytotoxicity, Ph+ ALL model cell line; type: cell-based; conditions: Homo sapiens, SUP-B15, read-out: IC50 (toxicity)
potassium hERG channel = potassium hERG channel (Homo sapiens, UniProt Q12809); experiment: Effect on the ion hERG channel; type: cell-based; conditions: tested at 0.1-10 μM, mesylate salt
EPHA8 = EPHA8 (Homo sapiens, UniProt P29322); experiment: Human kinase panel at 100 nM; type: biochemical
A549 = conditions: oral, 25 mg/kg (21 mg/kg as free base), 20 days
Method: Thymus-deprived male mice were used in the studies. A549 (1×10^7 cells) were injected with 0.2 mL of matrigel solution (BD Pharmingen) into the left leg of a mouse under ketamine/xylazine anesthesia. In a week after the injections, mice were distributed between therapeutic and control groups that were randomized by tumor size. Oral administration of the methanesulfonic acid salt of 3-(1,2,4-triazolo[4,3-a]pyridine-3-ylethynyl)-4-methyl-N-(4-((4-methylpiperazine-1-yl)methyl)-3-trifluoromethylphenyl)benzamide at a dose of 25 mg/kg (equivalent to 21 mg/kg calculated as the free base) was started on the next day after randomization and continued for 20 days. To determine the efficacy of tumor growth inhibition, the average size ratio was calculated for the therapeutic/control groups (% T/C).

CD-1 line mice males = experiment: Acute toxicity, oral route, mice; conditions: for LD10 / LD90: oral, male CD-1 mice
Excerpt: (§1) For each drug dose study a group of six animals was used. The study included control groups with the same animal headcount, which received equivalent solvent doses of a 0.5% water solution of methylcellulose. The follow-up period was 28 days. Lab mouse survivability analysis allowed carrying out Bliss analysis and determining the lethal doses of the studied drugs.

[1] = Acute toxicity, oral route, mice; conditions: male, CD-1, mouse, in vivo, po, LD50, oral, male CD-1 mice
Excerpt: as §1

Bcr-Abl = Bcr-Abl (Homo sapiens, UniProt P00519); experiment: Bcr-Abl tyrosine kinase enzyme activity
Bcr-Abl (M351T) = Bcr-Abl (M351T) (Homo sapiens, UniProt P00519, M351T, form not given); experiment: Bcr-Abl tyrosine kinase enzyme activity
CCRF-CEM = experiment: Cytotoxicity, acute lymphoblastic leukemia line; type: cell-based, human
rats = experiment: Acute toxicity studies, rats; type: in vivo
HCT116 line cells = conditions: oral, 25 mg/kg (21 mg/kg as free base), 20 days
Method: To induce pathology, HCT116 line cells were used. Cells in the amount of 200 μL (2.5×10^7 cells/mL) were subcutaneously injected to the right side of thymus-deprived female mice (SCID). […] To determine the efficacy of tumor growth inhibition upon completion of treatment (20 days), the average size ratio was calculated between the therapeutic/control groups (% T/C).

[2] = tested on: Sca1+ marrow cells, expressing p185-T315I^BCR/ABL; experiment: BCR/ABL-induced chronic myelogenous leukemia model; type: in vivo, C57BL/6N line mice; conditions: for Average life: oral, control 55.0 ± 6.3
Method: To assess the efficacy of the free base and methanesulfonic acid salt of 3-(1,2,4-triazolo[4,3-a]pyridine-3-ylethynyl)-4-methyl-N-(4-((4-methylpiperazine-1-yl)methyl)-3-trifluoromethylphenyl)benzamide for treating chronic myelogenous leukemia (CML) studies of the compounds' activity on the BCR/ABL-induced CML-like disease in mice were conducted. In the study C57BL/6N line mice were used. […] The efficacy of therapy with 3-(1,2,4-triazolo[4,3-a]pyridine-3-ylethynyl)-4-methyl-N-(4-((4-methylpiperazine-1-yl)methyl)-3-trifluoromethylphenyl)benzamide administered orally as a free base and methanesulfonic acid salt was studied.

EPHA2 = EPHA2 (Homo sapiens, UniProt P29317); experiment: Human kinase panel at 100 nM; type: biochemical
Tom-1 = experiment: Cytotoxicity, Ph+ ALL model cell line; type: cell-based; conditions: Homo sapiens, read-out: IC50 (toxicity)
Bcr-Abl (H396P) = Bcr-Abl (H396P) (Homo sapiens, UniProt P00519, H396P, form not given); experiment: Bcr-Abl tyrosine kinase enzyme activity
[3] = dose of the substance administered

EPHA8, sequence (P29322 28-1005): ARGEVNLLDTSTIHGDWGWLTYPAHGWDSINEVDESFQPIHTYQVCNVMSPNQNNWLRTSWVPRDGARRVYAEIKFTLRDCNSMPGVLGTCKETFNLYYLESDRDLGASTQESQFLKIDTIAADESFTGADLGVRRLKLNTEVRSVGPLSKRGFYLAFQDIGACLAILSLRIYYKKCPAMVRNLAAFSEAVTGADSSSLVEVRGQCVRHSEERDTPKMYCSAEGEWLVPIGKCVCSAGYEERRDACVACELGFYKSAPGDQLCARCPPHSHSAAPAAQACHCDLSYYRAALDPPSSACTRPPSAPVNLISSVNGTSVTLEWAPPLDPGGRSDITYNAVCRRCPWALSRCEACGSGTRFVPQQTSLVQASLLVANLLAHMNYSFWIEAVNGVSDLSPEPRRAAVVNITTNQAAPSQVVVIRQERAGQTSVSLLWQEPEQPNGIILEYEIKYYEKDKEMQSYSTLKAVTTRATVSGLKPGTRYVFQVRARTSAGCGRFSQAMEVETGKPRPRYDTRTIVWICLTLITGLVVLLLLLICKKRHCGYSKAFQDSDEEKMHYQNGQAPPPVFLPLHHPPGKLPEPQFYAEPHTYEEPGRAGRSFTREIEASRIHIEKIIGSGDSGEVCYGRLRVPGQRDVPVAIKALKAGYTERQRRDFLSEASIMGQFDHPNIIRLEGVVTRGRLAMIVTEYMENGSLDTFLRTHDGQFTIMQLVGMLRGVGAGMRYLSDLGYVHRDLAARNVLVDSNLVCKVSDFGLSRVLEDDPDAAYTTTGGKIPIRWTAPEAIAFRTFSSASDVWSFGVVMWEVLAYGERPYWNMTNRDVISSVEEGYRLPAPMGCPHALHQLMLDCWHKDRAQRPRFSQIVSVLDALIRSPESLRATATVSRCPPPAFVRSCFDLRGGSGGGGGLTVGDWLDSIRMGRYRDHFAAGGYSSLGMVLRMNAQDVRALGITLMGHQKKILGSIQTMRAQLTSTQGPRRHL
potassium hERG channel, sequence (Q12809 whole entry): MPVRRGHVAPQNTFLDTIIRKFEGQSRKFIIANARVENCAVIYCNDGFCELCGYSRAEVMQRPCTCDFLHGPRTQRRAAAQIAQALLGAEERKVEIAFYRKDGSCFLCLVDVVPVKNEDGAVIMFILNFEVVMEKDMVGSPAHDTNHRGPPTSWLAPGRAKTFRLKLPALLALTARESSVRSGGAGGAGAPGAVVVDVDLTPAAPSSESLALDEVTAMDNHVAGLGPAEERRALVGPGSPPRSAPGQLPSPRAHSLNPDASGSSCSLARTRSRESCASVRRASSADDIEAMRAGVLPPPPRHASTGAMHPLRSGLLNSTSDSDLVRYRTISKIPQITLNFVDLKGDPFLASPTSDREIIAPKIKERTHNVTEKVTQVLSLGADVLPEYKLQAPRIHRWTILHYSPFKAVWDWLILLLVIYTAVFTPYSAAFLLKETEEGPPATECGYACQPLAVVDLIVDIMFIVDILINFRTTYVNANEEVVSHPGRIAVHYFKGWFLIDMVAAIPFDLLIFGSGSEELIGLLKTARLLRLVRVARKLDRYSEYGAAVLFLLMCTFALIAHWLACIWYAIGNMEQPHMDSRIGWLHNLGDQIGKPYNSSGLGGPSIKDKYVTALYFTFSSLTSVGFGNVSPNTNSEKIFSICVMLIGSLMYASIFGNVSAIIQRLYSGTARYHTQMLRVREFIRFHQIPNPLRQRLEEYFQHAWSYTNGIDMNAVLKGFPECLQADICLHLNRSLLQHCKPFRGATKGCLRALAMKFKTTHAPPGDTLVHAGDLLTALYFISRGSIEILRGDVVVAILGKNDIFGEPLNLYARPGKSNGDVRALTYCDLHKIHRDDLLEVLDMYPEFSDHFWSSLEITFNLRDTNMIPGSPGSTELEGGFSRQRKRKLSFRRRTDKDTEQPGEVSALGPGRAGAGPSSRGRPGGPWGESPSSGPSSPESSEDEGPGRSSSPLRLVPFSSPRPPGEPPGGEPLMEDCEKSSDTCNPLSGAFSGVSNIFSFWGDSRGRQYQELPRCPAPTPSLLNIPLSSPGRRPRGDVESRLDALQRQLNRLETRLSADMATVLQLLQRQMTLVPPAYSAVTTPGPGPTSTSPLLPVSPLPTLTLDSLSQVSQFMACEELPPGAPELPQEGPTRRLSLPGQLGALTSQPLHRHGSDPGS
EPHA2, sequence (P29317 24-976): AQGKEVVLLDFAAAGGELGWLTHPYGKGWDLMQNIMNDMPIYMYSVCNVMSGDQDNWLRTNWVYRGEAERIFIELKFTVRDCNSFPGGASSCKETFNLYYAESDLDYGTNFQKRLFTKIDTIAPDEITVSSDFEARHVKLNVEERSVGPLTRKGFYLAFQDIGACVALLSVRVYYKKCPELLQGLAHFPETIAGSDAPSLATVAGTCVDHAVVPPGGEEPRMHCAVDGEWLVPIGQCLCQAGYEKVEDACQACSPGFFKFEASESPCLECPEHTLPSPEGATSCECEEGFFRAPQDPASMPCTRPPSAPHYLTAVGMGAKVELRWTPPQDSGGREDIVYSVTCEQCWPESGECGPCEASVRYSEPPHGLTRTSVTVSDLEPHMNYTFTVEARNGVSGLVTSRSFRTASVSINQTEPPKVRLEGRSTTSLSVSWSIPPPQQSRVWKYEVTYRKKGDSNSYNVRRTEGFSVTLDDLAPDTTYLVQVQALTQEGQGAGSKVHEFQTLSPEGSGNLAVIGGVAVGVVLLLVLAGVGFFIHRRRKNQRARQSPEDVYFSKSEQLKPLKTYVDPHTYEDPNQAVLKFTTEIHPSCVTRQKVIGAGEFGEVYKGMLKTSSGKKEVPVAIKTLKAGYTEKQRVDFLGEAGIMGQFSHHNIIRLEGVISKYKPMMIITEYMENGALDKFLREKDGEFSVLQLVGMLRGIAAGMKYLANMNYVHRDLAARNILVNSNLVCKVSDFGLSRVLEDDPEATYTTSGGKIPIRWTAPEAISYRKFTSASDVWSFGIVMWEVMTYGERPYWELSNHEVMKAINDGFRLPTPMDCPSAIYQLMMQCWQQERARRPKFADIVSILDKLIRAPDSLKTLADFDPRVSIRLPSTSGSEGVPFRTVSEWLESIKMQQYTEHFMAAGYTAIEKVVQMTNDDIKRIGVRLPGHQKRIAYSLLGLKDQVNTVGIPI

CS(=O)(=O)O.Cc1ccc(C(=O)Nc2ccc(CN3CCN(C)CC3)c(C(F)(F)F)c2)cc1C#Cc1nnc2ccccn12 [methanesulfonic acid salt, 3-(1,2,4-triazolo[4,3-a]pyridine-3-ylethynyl)-4-methyl-N-(4-((4-methylpiperazin-1-yl)methyl)-3-trifluoromethylphenyl)benzamide mono methanesulfonic acid salt]
IC50 (BaF3/BCR-ABL T315I): 75 nM
Cmax (in vivo): 1100 ng/mL
IC50 (SupB15): 50 nM
IC50 (potassium hERG channel): 7800 nM
inhibition at 0.1 µM (EPHA8): > 50%
T/C (average tumor size ratio therapeutic/control) (A549): < 35%
signs of animal intoxication (CD-1 line mice males; mouse, in vivo, po): dyspnea, hypodynamia, tumbled fur, diarrhea, bloating, in some animals—focal alopecia
LD10 (CD-1 line mice males; calculated as a free base): (508*) mg/kg
LD90 (CD-1 line mice males; calculated as a free base): (1,864*) mg/kg
LD10 (CD-1 line mice males; [3]): 600 mg/kg
LD90 (CD-1 line mice males; [3]): 2,200 mg/kg
LD50 at 28 days ([1]; calculated as a free base): 1190 mg/kg
LD50 at 28 days [1, 3]: 1400 mg/kg
IC50 (Bcr-Abl): 0.49 to 3.1 nM
IC50 (Bcr-Abl (M351T)): 2.8 nM
cytotoxicity (CCRF-CEM): showed cytotoxicity
LD10 (rats; calculated as a free base): 1,695 mg/kg
LD10 (rats; dose of the salt): 2,000 mg/kg
T/C (average tumor size ratio therapeutic/control) (HCT116 line cells): < 35%
therapeutic effect compared with the free base ([2]; 40 mg/kg (34 mg/kg as free base)): same therapeutic effect as administration of 50 mg/kg of a free base
increase of animals' lives compared to the control group ([2]; 59 mg/kg (50 mg/kg as free base)): almost two-fold increase
Average life ([2]; 10 mg/kg salt (8.5 as free base)): 65.5 ± 6.7 days
Average life ([2]; 25 mg/kg salt (21 as free base)): 73.9 ± 7.1 days
Average life ([2]; 40 mg/kg salt (34 as free base)): 90.3 ± 6.9 days
Average life ([2]; 59 mg/kg salt (50 as free base)): 104.5 ± 5.2 days
inhibition at 0.1 µM (EPHA2): > 50%
IC50 (Tom-1): 5 nM
IC50 (Bcr-Abl (H396P)): 1 nM

From patent US11225474B2, “Crystalline salt forms of 3-(1,2,4-triazolo[4,3-a]pyridine-3-ylethynyl)-4-methyl-N-(4-((4-methylpiperazin-1-yl)methyl)-3-trifluoromethylphenyl)benzamide for medical application” (priority 2016, dated 2022)
